target: RIPK2 enzyme (Homo sapiens (Human), UniProt O43353); test: RIPK2 inhibition assay, TR-FRET LanthaScreen Tracer 199 screening assay; format: binding; conditions: 5 nM RIPK2 enzyme, Tracer 199 at 50 nM, Eu-anti-His Antibody at 2 nM, 1 hour incubation
Outline: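 TR-FRET binding displacement: 5 nM RIPK2, 50 nM Tracer 199, 2 nM Eu-anti-His antibody in 1× kinase reaction buffer, 1 h, read at room temperature (340 ex/665 and 615 em). No-enzyme background subtracted; percent inhibition versus uninhibited controls, IC50 from unconstrained variable-slope fit.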

Chain of RIPK2 enzyme (O43353 whole entry): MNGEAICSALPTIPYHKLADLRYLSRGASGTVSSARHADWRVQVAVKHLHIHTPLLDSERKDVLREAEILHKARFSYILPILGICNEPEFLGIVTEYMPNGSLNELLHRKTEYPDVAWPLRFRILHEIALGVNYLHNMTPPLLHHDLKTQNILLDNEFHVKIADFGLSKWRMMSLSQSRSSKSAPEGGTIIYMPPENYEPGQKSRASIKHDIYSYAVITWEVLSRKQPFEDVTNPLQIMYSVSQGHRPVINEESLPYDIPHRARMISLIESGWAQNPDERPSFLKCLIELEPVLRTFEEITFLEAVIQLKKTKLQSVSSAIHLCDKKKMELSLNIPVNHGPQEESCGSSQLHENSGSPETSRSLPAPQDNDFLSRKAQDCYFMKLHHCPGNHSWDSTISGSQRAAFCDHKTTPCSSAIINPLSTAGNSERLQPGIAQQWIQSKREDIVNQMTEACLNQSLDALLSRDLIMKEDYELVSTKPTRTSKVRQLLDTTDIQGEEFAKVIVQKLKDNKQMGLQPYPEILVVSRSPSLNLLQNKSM

SMILES | IC50
CCOCCN1CCCC(c2cc3c(Nc4ccc5scnc5c4)ccnc3s2)C1C (stereo not drawn) [Example 19, N-(2-(1-(2-ethoxyethyl)-2-methylpiperidin-3-yl)thieno[2,3-b]pyridin-4-yl)benzo[d]thiazol-5-amine] | 10 to 20 nM
CC1NCCCC1c1cc2c(Nc3ccc4scnc4c3F)c(F)cnc2s1 (single isomer, unassigned) [Example 124d, 4-fluoro-N-(5-fluoro-2-(2-methylpiperidin-3-yl)thieno[2,3-b]pyridin-4-yl)benzo[d]thiazol-5-amine] | ≥ 50 nM
CCN1CCC=C(c2cc3c(Nc4cc5ncsc5cc4F)ccnc3s2)[C@H]1C [Example 52a, N-(2-(1-ethyl-2-methyl-1,2,5,6-tetrahydropyridin-3-yl)thieno[2,3-b]pyridin-4-yl)-6-fluorobenzo[d]thiazol-5-amine] | 10 to 20 nM
CN1CCC(c2cc3c(Nc4cc5ncsc5cc4F)ccnc3s2)C12CCOCC2 (stereo not drawn) [Example 85, 6-fluoro-N-(2-(1-methyl-8-oxa-1-azaspiro[4.5]decan-4-yl)thieno[2,3-b]pyridin-4-yl)benzo[d]thiazol-5-amine] | ≥ 50 nM
CCN1CCC=C(c2cc3c(Nc4cc5ncsc5cc4F)ccnc3s2)[C@@H]1C [Example 52b, N-(2-(1-ethyl-2-methyl-1,2,5,6-tetrahydropyridin-3-yl)thieno[2,3-b]pyridin-4-yl)-6-fluorobenzo[d]thiazol-5-amine] | 10 to 20 nM
CCN1CCC[C@H](c2cc3c(Nc4cc5ncsc5cc4F)ccnc3s2)[C@@H]1C [Example 54b, N-(2-(1-ethyl-2-methylpiperidin-3-yl)thieno[2,3-b]pyridin-4-yl)-6-fluorobenzo[d]thiazol-5-amine] | 20 to 50 nM
CC1C(c2cc3c(Nc4ccc5scnc5c4F)c(F)cnc3s2)CCCN1C (single isomer, unassigned) [Example 125a, N-(2-(1,2-dimethylpiperidin-3-yl)-5-fluorothieno[2,3-b]pyridin-4-yl)-4-fluorobenzo[d]thiazol-5-amine] | ≥ 50 nM
CC(C)N1CCC=C(c2cc3c(Nc4ccc5scnc5c4)ccnc3s2)C1C (stereo not drawn) [Example 7, N-(2-(1-isopropyl-2-methyl-1,2,5,6-tetrahydropyridin-3-yl)thieno[2,3-b]pyridin-4-yl)benzo[d]thiazol-5-amine] | ≤ 10 nM
CC1NCCCC1c1cc2c(Nc3ccc4scnc4c3)c(F)cnc2s1 (single isomer, unassigned) [Example 119c, N-(5-fluoro-2-(2-methylpiperidin-3-yl)thieno[2,3-b]pyridin-4-yl)benzo[d]thiazol-5-amine] | ≤ 10 nM

Results, then the compound that gave them:

IC50 | SMILES
≤ 10 nM | C[C@H]1[C@@H](c2cc3c(Nc4c(F)cc5scnc5c4F)ccnc3s2)CCCN1C [Example 71b, N-(2-((2S,3S)-1,2-dimethylpiperidin-3-yl)thieno[2,3-b]pyridin-4-yl)-4,6-difluorobenzo[d]thiazol-5-amine]
≤ 10 nM | CCN1CCC[C@@H](c2cc3c(Nc4ccc5scnc5c4F)ccnc3s2)[C@@H]1C [Example 63, N-(2-((2S,3R)-1-ethyl-2-methylpiperidin-3-yl)thieno[2,3-b]pyridin-4-yl)-4-fluorobenzo[d]thiazol-5-amine]
≤ 10 nM | C1=C(c2cc3c(Nc4ccc5scnc5c4)ccnc3s2)CNCCC1 [Example 112, N-(2-(2,5,6,7-tetrahydro-1H-azepin-3-yl)thieno[2,3-b]pyridin-4-yl)benzo[d]thiazol-5-amine]
≤ 10 nM | CC1C(c2cc3c(Nc4ccc5scnc5c4)ccnc3s2)CCCN1CCO (stereo not drawn) [Example 20, 2-(3-(4-(benzo[d]thiazol-5-ylamino)thieno[2,3-b]pyridin-2-yl)-2-methylpiperidin-1-yl)ethan-1-ol]
≤ 10 nM | CC1C(c2cc3c(Nc4ccc5scnc5c4)c(F)cnc3s2)CCCN1C (stereo not drawn) [Example 120, N-(2-(1,2-dimethylpiperidin-3-yl)-5-fluorothieno[2,3-b]pyridin-4-yl)benzo[d]-thiazol-5-amine]
≤ 10 nM | C[C@@H]1[C@H](c2cc3c(Nc4ccc5scnc5c4)ccnc3s2)CCCN1C [Example 4c, N-(2-(1,2-dimethylpiperidin-3-yl)thieno[2,3-b]pyridin-4-yl)benzo[d]thiazol-5-amine]

Source: patent US11168093B2, “Thienopyridine inhibitors of RIPK2” (Celgene Corporation, priority 2018, dated 2021)
